The values that follow come from patent publication US4792554A, “Pyridine compounds, pharaceutical compositions, their use in allergy therapy” (priority 1985, dated 1988).

Series [1] concerns mast cells. As to conditions: British Pat. No. 1,144,905; cited from earlier work.
In the next series the test system is bradykinin. Briefly: Antagonistic action towards bradykinin: inhibition of bradykinin-induced bronchospasm in anesthetized guinea pigs (Konzett-Rössler). The class given is in vivo, guinea pig. The conditions noted are these: Cavia porcellus, iv, anesthetized guinea pigs, dose reducing induced spasm to one half; read-out: Inhibitory action towards bradykinin (ED50). Here is the method: (§1) 1. Antagonistic action towards the allergy mediators (on anesthetized guinea pigs)
(§2) The test substances were administered intravenously in aqueous solution injected in a volume of 1 ml/kg.

Series [2] concerns platelet activating factor (PAF). Briefly: Antagonism of PAF-induced bronchospasm in anesthetized rats. Format: in vivo, rat. The conditions noted are these: for action on PAF / PAF-induced bronchospasm (in words): PAF test. The procedure:
(§3) The compounds of the formula I and their salts additionally show a pronounced inhibitory action on platelet activating factor (PAF) and the leukotrienes, which are likewise released as spasmogenic mediators from the mast cells during the course of the immediate anaphylactic reaction. It was possible to antagonize the bronchospasm induced in anesthetized rats by administration of PAF by, for example, intravenous administration of the compound of Example 3 with a ED50 of 1-3 mg/kg. The said products of the state of the art, such as oxatomide, ketotiphen and terfenadine, have no action in this test. The contractions induced by calcium ionophore A 23 187 in isolated strips of lung and the isolated trachea of guinea pigs were inhibited by, for example, the compound of Example 3 with an IC50 of 0.1-0.3 μg/ml. Since calcium ionophore A 23 187 stimulates 5-lipoxygenase and thus promotes the formation of spasmogenic leukotrienes, a possible interpretation of the result of this experiment is that the compounds according to the invention are potent leukotriene inhibitors.

Series [3] has as its system rat peritoneal mast cells. Briefly: Histamine release from isolated rat mast cells induced by calcium ionophore A 23 187. The class given is cell-based. As to conditions: Mast cell, 0.25 h, 15 min incubation, A 23 187 10^-6 g/ml, read-out: Inhibitory action in the Ca ionophore test IC50. Here is the method: (b) Histamine release from isolated rat mast celss induced by calcium ionophore A 23 187 […] […] For this purpose, 10^4 cells were suspended in Clicks/RPMI (50:50, vol.; supplied by Serva, Heidelberg) tissue culture medium, incubated with the test substance for 15 minutes, and then treated with calcium ionophore A 23 187 at a concentration of 10^-6 g/ml. The released histamine was determined by high-pressure liquid chromatography (HPLC). The measure used for the inhibitory action was the IC50 which represents the molar concentration (mol/l) at which the induced histamine release was decreased to one half that of cells which had not been pretreated with a product. In this context, IC50 values above 10^-5 mol/l are regarded as therapeutically irrelevant.

In series [4] the test system is mast cells. Briefly: Passive cutaneous anaphylaxis (PCA) in the rat, inhibition of mediator release (protective effect on mast cells). Format: in vivo. As to conditions: Mast cell. An excerpt:
(a) Passive cutaneous anaphylaxis (PCA) in the rat (PCA test) Passive cutaneous anaphylaxis is an IgE-mediated allergy of the immediate type (type I). In this model, antibodies bound to mast cells and basophilic granulocytes react with an intravenously administered antigen with release of excessive amount of the allergy mediators. The histamine which is released during this can be visualized by simultaneous application of Evans blue to the shaven flanks of the rats. Photometric evaluation of the color intensity was used to determine, by means of the percentage inhibition of mediator release compared with untreated control animals, the protective effect on mast cells of the compound according to the invention after oral administration.

The nature of series [5]: Normal weight gain of rats in a subchronic 14-day experiment. Format: in vivo, rat. The conditions noted are these: high oral doses. An excerpt:
Finally, the compound of Example 3 had no effect, even at high oral doses, on the normal weight gain of rats in a subchronic 14-day experiment. It is evident from this that the compounds of the formula I have no appetite-stimulating action in contrast to many other antihistamines.

For the next series, the system named is leukotriene D4. Briefly: Inhibition of leukotriene D4-induced spasm in isolated guinea pig trachea. As to conditions: leukotriene D4 10 pg/ml.
For series [6], the system named is isolated strips of lung and the isolated trachea of guinea pigs. Briefly: Inhibition of contractions induced by calcium ionophore A 23 187 in isolated strips of lung and isolated trachea of guinea pigs. As to conditions: guinea pig. Here is the method:
as §3

For series [7], the system named is airway obstruction induced by histamine aerosol. Briefly: Plethysmographic investigation on conscious guinea pigs with airway obstruction induced by inhalation of histamine aerosol. Format: in vivo, guinea pig. The conditions noted are these: oral, 0.3% strength histamine aerosol; for ED50: Cavia porcellus.
The nature of series [8]: Acute toxicity, mortality within 7 days after single i.p. administration to NMRI mice. The conditions noted are these: in vivo, ip, mouse i.p. The procedure:
The LD50 values were determined by the standard method of the mortality occurring within 7 days after a single intraperitoneal (i.p.) administration to NMRI mice (NMRI=Naval Medical Research Institute).

The next series has as its system histamine. Briefly: Antagonistic action towards histamine: inhibition of histamine-induced bronchospasm in anesthetized guinea pigs (Konzett-Rössler). The class given is in vivo, guinea pig. The conditions noted are these: Cavia porcellus, iv, anesthetized guinea pigs, dose reducing induced spasm to one half; read-out: Inhibitory action towards histamine (ED50). The procedure:
as §1, §2

Series [9] deals with asthma induced by histamine. Briefly: Inhibition by inhalation of allergic asthma induced by histamine in conscious guinea pigs. Format: in vivo, guinea pig. The conditions noted are these: 0.3% strength aerosol.
In series [10] the test system is histamine and leukotrienes. As to conditions: state of the art; cited from earlier work.
The conditions of series [11]: side effect, state of the art; cited from earlier work.
Series [12] deals with spontaneous motility of the mouse. Briefly: Spontaneous motility of the mouse (central sedation). The class given is in vivo. The conditions noted are these: oral, 1 mg/kg.
For series [13] the following is noted: state of the art; cited from earlier work.

Consider `O=C(O)c1cc(=O)c2c(OCC(O)COc3cccc4oc(C(=O)O)cc(=O)c34)cccc2o1` [CHROMOGLICIC ACID], for which, in the series with mast cells [1], the stabilizing mast cells result is reported as “stabilizing mast cells”.

As usually defined, the ED50 is the dose that gives a 50% effect, or the effect in half of the subjects. The term IC50 denotes the concentration that inhibits the measured activity by half. By inhibition in vivo is commonly meant how much of the control response was suppressed. Low readings indicate a response near the control, high ones a response far below the control. Usually LD50 stands for the dose expected to kill half of the subjects tested. A lower LD50 goes with greater toxicity. For `Cc1cc(NCCN2CCN(C(c3ccccc3)c3ccccc3)CC2)c([N+](=O)[O-])c(C)n1.Cl.Cl.Cl` [Example 3, 2,6-dimethyl-3-nitro-4-[(2-{4-diphenylmethyl-1-piperazinyl}ethyl)amino]pyridine trihydrochloride], the ED50 with bradykinin was 0.15 mg/kg; in series [2] (Rattus norvegicus, Platelet, intravenous, anesthetized rats), 1 to 3 mg/kg; in [7] it was 3.15 mg/kg; with histamine, 0.3 mg/kg. Moreover, in series [3], the IC50 stood at 0.01 µM. The same compound came in with an inhibition in vivo at 12.5 mg/kg in the series with mast cells [4] (oral dose 12.5 mg/kg) of 26%. This compound also had an inhibition in vivo at 25 mg/kg with mast cells [4] (oral dose 25 mg/kg) of 61%. Also, the inhibition in vivo at 50 mg/kg with mast cells [4] (oral dose 50 mg/kg) came to 85%. Also, the “effect on normal weight gain” value in series [5] is on record as “no effect”. Also, the “concentration inhibiting leukotriene D4-induced spasm by 50%” value in the series with leukotriene D4 lay in the range of 3 to 6 µg/mL. Moreover, the “IC50, contractions induced by calcium ionophore A 23 187” value in [6] fell in the range of 0.1 to 0.3 mg/L. Besides, in [7], the “time after administration to maximum effect” value worked out at 30 min. The compound also returned an LD50 at 168 h in [8] of 300 to 600 mg/kg. Further, the “suppression of experimentally induced asthma attacks” value in [9] was “substantial suppression”.

As for `CN1CCC(=C2c3ccccc3CC(=O)c3sccc32)CC1` [ketotifen], the “antagonistic properties for histamine and leukotrienes” value in series [10] is “antagonistic properties for histamine and leukotrienes”. Besides, in [2], the “action on PAF / PAF-induced bronchospasm (in words)” value is listed as “no action”. For the same compound, the sedation entry in series [11] is “pronounced sedation”. The “reduction in the spontaneous motility” value in series [12] is “significant”.

With `O=c1[nH]c2ccccc2n1CCCN1CCN(C(c2ccccc2)c2ccccc2)CC1` [oxatomide], the “antagonistic properties for histamine and leukotrienes” value in [10] is “antagonistic properties for histamine and leukotrienes”. The onset of action entry in series [13] is “does not exert its action until several days have passed”. The “action on PAF / PAF-induced bronchospasm (in words)” value in series [2] is on record as “no action”. Also, in [11], the sedation result is reported as “pronounced sedation”. For the same compound, in series [7], the 50% effective dose (ED50) came to 25 mg/kg and the “time after administration to maximum effect” value is 90 min.
